# Tested on: aortic wall hypoxia-induced rat AAA model
# Experiment: Aortic wall hypoxia-induced rat AAA model: non-rupture survival / mortality due to rupture
# Format: in vivo
# Conditions: day of operation to Day 28 post operation, versus control group; trend toward improvement in survival rate
# Excerpt: The action of Compound 1 and pitavastatin in rat AAA models (Non-Patent Document 3) induced by operation were examined. In the operation, the aortic wall of each model was separated from the surrounding tissues. After a catheter was inserted, the abdominal aorta was ligated together with a catheter with a thread was studied.
# In the test, Compound 1 was manufactured according to the method disclosed in Patent Document 1 and mixed, in a proportion of 0.15%, with a normal diet (FR2, manufactured by Funabashi Farm Co., Ltd.), and the Compound 1-mixed diet was used. In regard to pitavastatin, 0.003% of pitavastatin calcium was mixed with a normal diet(FR2, manufactured by Funabashi Farm Co., Ltd.) and the pitavastatin-mixed diet was used.
# Sprague-Dawley male rats (300 to 350 g: Japan SLC, Inc.) were used in the experiment. The rats were reared at room temperature of 25° C.±1° C., and allowed to freely take the feed and water.
# The model was created according to the method disclosed in Non-Patent Document 3. Specifically, a rat AAA model was created by separating the rat aortic wall from the surrounding tissue, inserting a polyurethane catheter, and then ligating the abdominal aorta together with a plastic catheter with a monofilament thread, and inducing AAA. […]
# In each group, up to 28 days post operation, the aneurysm diameter was measured by echo and comparison in survival was made. […]
compound,measurement,value
"O=C(NCCCOc1ccc2[nH]c(=O)ccc2c1)N(C1CC1)[C@@H]1CCCC[C@H]1O [Compound 1, (−)-6-[3-[3-cyclopropyl-3-[(1R,2R)-2-hydroxycyclohexyl]ureido]propoxy]-2(1H)-quinolinone]",mortality rates due to rupture,lower than that in the control group

# — patent US20220184058A1, “PHARMACEUTICAL COMPOSITION FOR TREATING AORTIC ANEURYSM” (National University Corporation Hamamatsu University School …, priority 2019, published 2022)
